A word on the IC50: it is the point on the concentration scale where inhibition reaches its midpoint.

Data on 21 molecules can be found in patent US8148367B2 (Takeda Pharmaceutical Company Limited, priority 2008, dated 2012).

Molecules are shown by their SMILES.

This experiment addresses T1, Recombinant human renin (Homo sapiens, UniProt P00797).
T1 construct: isolate the active form (residues 67-406); made in house; host or cells: FreeStyle 293-F cells, transient expression of pcDNA3.1(+)/hREN
T1 sequence (P00797 67-406): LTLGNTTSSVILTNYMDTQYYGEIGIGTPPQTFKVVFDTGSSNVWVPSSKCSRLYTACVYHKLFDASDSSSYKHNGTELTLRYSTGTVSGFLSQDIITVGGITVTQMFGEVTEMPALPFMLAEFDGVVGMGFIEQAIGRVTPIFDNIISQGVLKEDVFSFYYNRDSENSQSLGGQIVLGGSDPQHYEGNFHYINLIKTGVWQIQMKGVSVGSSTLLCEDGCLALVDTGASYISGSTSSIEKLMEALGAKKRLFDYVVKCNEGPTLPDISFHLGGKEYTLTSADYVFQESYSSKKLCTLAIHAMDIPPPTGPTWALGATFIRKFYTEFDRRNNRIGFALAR
Description: In vitro enzymatic activity assay of renin inhibitors (fluorescence, QXL520/HiLyteFluo488 peptide substrate). The following applies: recombinant human renin 3 nM, 1 μM substrate, pre-incubated 10 minutes at 37° C., incubation one hour, pH 7.4, 5% DMSO; read-out: IC50 of Exemplified Compounds Against Renin. Type of experiment: biochemical.
For the molecule `Cc1ccccc1-n1c(-c2ccccc2)c(C(=O)N2CCNCC2)n(CCCNC(=O)CC(C)C)c1=O` [Example 165, 3-Methyl-N-(3-(2-oxo-4-phenyl-5-(piperazine-1-carbonyl)-3-o-tolyl-2,3-dihydro-1H-imidazol-1-yl)propyl)butanamide], the IC50 is above 1000 nM.
Turning to `Cc1ccccc1-n1c(-c2ccccc2)c(C(=O)N2CCNCC2)n(CCNC(=O)c2ccccc2)c1=O` [Example 166, N-(2-(2-oxo-4-Phenyl-5-(piperazine-1-carbonyl)-3-o-tolyl-2,3-dihydro-1H-imidazol-1-yl)ethyl)benzamide], the IC50 fell in the range of 500 to 1000 nM.
Turning to `COc1ccccc1-n1c(-c2ccccc2)c(C(=O)N2CCNCC2)n(CCCNC(=O)CC(C)C)c1=O` [Example 167, N-(3-(3-(2-Methoxyphenyl)-2-oxo-4-phenyl-5-(piperazine-1-carbonyl)-2,3-dihydro-1H-imidazol-1-yl)propyl)-3-methylbutanamide], the IC50 is above 1000 nM.
To `COc1ccccc1-n1c(-c2ccccc2)c(C(=O)N2CCNCC2)n(CCNC(=O)c2ccccc2)c1=O` [Example 168, N-(2-(3-(2-Methoxyphenyl)-2-oxo-4-phenyl-5-(piperazine-1-carbonyl)-2,3-dihydro-1H-imidazol-1-yl)ethyl)benzamide] belongs 100 to 500 nM.
The value for `COc1ccccc1-n1c(-c2ccccc2)c(C(=O)N2CCNCC2)n(CCNC(=O)CC(C)C)c1=O` [Example 169, N-(2-(3-(2-Methoxyphenyl)-2-oxo-4-phenyl-5-(piperazine-1-carbonyl)-2,3-dihydro-1H-imidazol-1-yl)ethyl)-3-methylbutanamide] was above 1000 nM.
The value for `O=C(NCCCn1c(C(=O)N2CCNCC2)c(-c2ccccc2)n(C2CCCC[C@@H]2O)c1=O)c1ccccc1` (stereo partly drawn) [Example 170, N-(3-(3-((2S)-2-Hydroxycyclohexyl)-2-oxo-4-phenyl-5-(piperazine-1-carbonyl)-2,3-dihydro-1H-imidazol-1-yl)propyl)benzamide] was above 1000 nM.
In the case of `O=C(c1c(-c2ccccc2)n(C2CCCC[C@@H]2O)c(=O)n1CCCNS(=O)(=O)c1ccccc1)N1CCNCC1` (stereo partly drawn) [Example 171, N-(3-(3-((2S)-2-Hydroxycyclohexyl)-2-oxo-4-phenyl-5-(piperazine-1-carbonyl)-2,3-dihydro-1H-imidazol-1-yl)propyl)benzenesulfonamide], the IC50 was above 1000 nM.
On to `CC(C)CC(=O)NCCCn1c(C(=O)N2CCNCC2)c(-c2ccccc2)n(C2CCCC[C@@H]2O)c1=O` (stereo partly drawn) [Example 172, N-(3-(3-((2S)-2-Hydroxycyclohexyl)-2-oxo-4-phenyl-5-(piperazine-1-carbonyl)-2,3-dihydro-1H-imidazol-1-yl)propyl)-3-methylbutanamide], for which the IC50 is above 1000 nM.
The value for `CC(C)CC(=O)NCCn1c(C(=O)N2CCNCC2)c(-c2ccccc2)n(C2CCCC[C@@H]2O)c1=O` (stereo partly drawn) [Example 173, N-(2-(3-((2S)-2-Hydroxycyclohexyl)-2-oxo-4-phenyl-5-(piperazine-1-carbonyl)-2,3-dihydro-1H-imidazol-1-yl)ethyl)-3-methylbutanamide] was above 1000 nM; that for `O=C(NCCCn1c(C(=O)N2CCNCC2)c(-c2ccccc2)n(-c2cccc(N3CCOCC3)c2)c1=O)c1ccccc1` [Example 174] was above 1000 nM; that for `O=C(c1c(-c2ccccc2)n(-c2cccc(N3CCOCC3)c2)c(=O)n1CCCNS(=O)(=O)c1ccccc1)N1CCNCC1` [Example 175, N-(3-(3-(3-Morpholinophenyl)-2-oxo-4-phenyl-5-(piperazine-1-carbonyl)-2,3-dihydro-1H-imidazol-1-yl)propyl)benzenesulfonamide] was 100 to 500 nM.
The value for `CC(C)CC(=O)NCCCn1c(C(=O)N2CCNCC2)c(-c2ccccc2)n(-c2cccc(N3CCOCC3)c2)c1=O` [Example 176, 3-Methyl-N-(3-(3-(3-morpholinophenyl)-2-oxo-4-phenyl-5-(piperazine-1-carbonyl)-2,3-dihydro-1H-imidazol-1-yl)propyl)butanamide] was above 1000 nM; that for `O=C(NCCn1c(C(=O)N2CCNCC2)c(-c2ccccc2)n(-c2cccc(N3CCOCC3)c2)c1=O)c1ccccc1` [Example 177, N-(2-(3-(3-Morpholinophenyl)-2-oxo-4-phenyl-5-(piperazine-1-carbonyl)-2,3-dihydro-1H-imidazol-1-yl)ethyl)benzamide] was 500 to 1000 nM; that for `CC(C)CC(=O)NCCn1c(C(=O)N2CCNCC2)c(-c2ccccc2)n(-c2cccc(N3CCOCC3)c2)c1=O` [Example 178, 3-Methyl-N-(2-(3-(3-morpholinophenyl)-2-oxo-4-phenyl-5-(piperazine-1-carbonyl)-2,3-dihydro-1H-imidazol-1-yl)ethyl)butanamide] was above 1000 nM.
The value for `COCCCOc1cccc(-n2c(-c3ccccc3)c(C(=O)N3CCNCC3)n(CCCNC(=O)c3ccccc3)c2=O)c1` [Example 179, N-(3-(3-(3-(3-Methoxypropoxy)phenyl)-2-oxo-4-phenyl-5-(piperazine-1-carbonyl)-2,3-dihydro-1H-imidazol-1-yl)propyl)benzamide] was 500 to 1000 nM; that for `COCCCOc1cccc(-n2c(-c3ccccc3)c(C(=O)N3CCNCC3)n(CCCNS(=O)(=O)c3ccccc3)c2=O)c1` [Example 180, N-(3-(3-(3-(3-Methoxypropoxy)phenyl)-2-oxo-4-phenyl-5-(piperazine-1-carbonyl)-2,3-dihydro-1H-imidazol-1-yl)propyl)benzenesulfonamide] was 100 to 500 nM.
For the molecule `COCCCOc1cccc(-n2c(-c3ccccc3)c(C(=O)N3CCNCC3)n(CCCNC(=O)CC(C)C)c2=O)c1` [Example 181, N-(3-(3-(3-(3-Methoxypropoxy)phenyl)-2-oxo-4-phenyl-5-(piperazine-1-carbonyl)-2,3-dihydro-1H-imidazol-1-yl)propyl)-3-methylbutanamide], the IC50 was above 1000 nM.
On to `COCCCOc1cccc(-n2c(-c3ccccc3)c(C(=O)N3CCNCC3)n(CCNC(=O)c3ccccc3)c2=O)c1` [Example 182, N-(2-(3-(3-(3-Methoxypropoxy)phenyl)-2-oxo-4-phenyl-5-(piperazine-1-carbonyl)-2,3-dihydro-1H-imidazol-1-yl)ethyl)benzamide], for which the IC50 fell in the range of 100 to 500 nM.
In the case of `COCCCOc1cccc(-n2c(-c3ccccc3)c(C(=O)N3CCNCC3)n(CCNS(=O)(=O)c3ccccc3)c2=O)c1` [Example 183, N-(2-(3-(3-(3-Methoxypropoxy)phenyl)-2-oxo-4-phenyl-5-(piperazine-1-carbonyl)-2,3-dihydro-1H-imidazol-1-yl)ethyl)benzenesulfonamide], the IC50 was above 1000 nM.
As to `COCCCOc1cccc(-n2c(-c3ccccc3)c(C(=O)N3CCNCC3)n(CCNC(=O)CC(C)C)c2=O)c1` [Example 184, N-(2-(3-(3-(3-Methoxypropoxy)phenyl)-2-oxo-4-phenyl-5-(piperazine-1-carbonyl)-2,3-dihydro-1H-imidazol-1-yl)ethyl)-3-methylbutanamide], the IC50 was above 1000 nM.
Consider `O=C(c1c(-c2ccccc2)n(-c2cccc(N3CCOCC3)c2)c(=O)n1CCNS(=O)(=O)c1ccccc1)N1CCNCC1` [Example 185, N-(2-(3-(3-Morpholinophenyl)-2-oxo-4-phenyl-5-(piperazine-1-carbonyl)-2,3-dihydro-1H-imidazol-1-yl)ethyl)benzenesulfonamide], for which the half-maximal inhibitory concentration (IC50) is above 1000 nM.
